Legend:
[1] = molecular target: Casein kinase I isoform alpha (Homo sapiens, UniProt P48729); experiment: Selectivity interaction (KinomeScan (DiscoverX)) EUB0000229b CSNK1A1; conditions: at 10 µM
[2] = molecular target: T1, Mitogen-activated protein kinase kinase kinase kinase 2 (Homo sapiens) (UniProt Q12851); experiment: Selectivity interaction (Ambit KINOMEscan and KiNATiv profiling in Jurkat cells) EUB0000090b MAP4K2; assay type: cell-based; conditions: at 1 µM
T1 sequence (whole entry): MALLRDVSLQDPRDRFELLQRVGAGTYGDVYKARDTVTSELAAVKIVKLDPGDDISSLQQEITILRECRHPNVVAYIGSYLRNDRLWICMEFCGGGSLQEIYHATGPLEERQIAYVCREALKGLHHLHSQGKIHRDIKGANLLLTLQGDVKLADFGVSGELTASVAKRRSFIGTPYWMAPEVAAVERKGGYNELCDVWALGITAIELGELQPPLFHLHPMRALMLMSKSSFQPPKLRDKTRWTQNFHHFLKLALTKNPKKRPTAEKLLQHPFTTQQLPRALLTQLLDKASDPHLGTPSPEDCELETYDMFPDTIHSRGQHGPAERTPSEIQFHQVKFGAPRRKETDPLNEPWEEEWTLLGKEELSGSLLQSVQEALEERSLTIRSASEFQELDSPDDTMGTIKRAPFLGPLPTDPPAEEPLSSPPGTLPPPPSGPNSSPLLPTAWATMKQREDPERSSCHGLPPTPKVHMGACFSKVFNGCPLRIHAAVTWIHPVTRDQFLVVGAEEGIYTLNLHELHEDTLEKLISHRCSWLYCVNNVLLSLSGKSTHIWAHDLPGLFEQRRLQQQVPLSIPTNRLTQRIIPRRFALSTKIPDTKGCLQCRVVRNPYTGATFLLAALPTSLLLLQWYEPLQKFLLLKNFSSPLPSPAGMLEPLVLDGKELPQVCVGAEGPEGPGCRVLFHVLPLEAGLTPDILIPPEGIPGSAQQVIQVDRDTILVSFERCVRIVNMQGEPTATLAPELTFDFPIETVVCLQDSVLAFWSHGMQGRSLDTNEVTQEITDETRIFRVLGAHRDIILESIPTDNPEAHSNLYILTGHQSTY

[3] = molecular target: Rho-associated protein kinase 1 (Homo sapiens) (UniProt Q13464); experiment: Selectivity interaction (Ambit KINOMEscan and KiNATiv profiling in Jurkat cells) EUB0000090b ROCK1; assay type: cell-based; conditions: at 1 µM
Rho-associated protein kinase 1 (Homo sapiens), sequence (Q13464 2-1354 limits assumed): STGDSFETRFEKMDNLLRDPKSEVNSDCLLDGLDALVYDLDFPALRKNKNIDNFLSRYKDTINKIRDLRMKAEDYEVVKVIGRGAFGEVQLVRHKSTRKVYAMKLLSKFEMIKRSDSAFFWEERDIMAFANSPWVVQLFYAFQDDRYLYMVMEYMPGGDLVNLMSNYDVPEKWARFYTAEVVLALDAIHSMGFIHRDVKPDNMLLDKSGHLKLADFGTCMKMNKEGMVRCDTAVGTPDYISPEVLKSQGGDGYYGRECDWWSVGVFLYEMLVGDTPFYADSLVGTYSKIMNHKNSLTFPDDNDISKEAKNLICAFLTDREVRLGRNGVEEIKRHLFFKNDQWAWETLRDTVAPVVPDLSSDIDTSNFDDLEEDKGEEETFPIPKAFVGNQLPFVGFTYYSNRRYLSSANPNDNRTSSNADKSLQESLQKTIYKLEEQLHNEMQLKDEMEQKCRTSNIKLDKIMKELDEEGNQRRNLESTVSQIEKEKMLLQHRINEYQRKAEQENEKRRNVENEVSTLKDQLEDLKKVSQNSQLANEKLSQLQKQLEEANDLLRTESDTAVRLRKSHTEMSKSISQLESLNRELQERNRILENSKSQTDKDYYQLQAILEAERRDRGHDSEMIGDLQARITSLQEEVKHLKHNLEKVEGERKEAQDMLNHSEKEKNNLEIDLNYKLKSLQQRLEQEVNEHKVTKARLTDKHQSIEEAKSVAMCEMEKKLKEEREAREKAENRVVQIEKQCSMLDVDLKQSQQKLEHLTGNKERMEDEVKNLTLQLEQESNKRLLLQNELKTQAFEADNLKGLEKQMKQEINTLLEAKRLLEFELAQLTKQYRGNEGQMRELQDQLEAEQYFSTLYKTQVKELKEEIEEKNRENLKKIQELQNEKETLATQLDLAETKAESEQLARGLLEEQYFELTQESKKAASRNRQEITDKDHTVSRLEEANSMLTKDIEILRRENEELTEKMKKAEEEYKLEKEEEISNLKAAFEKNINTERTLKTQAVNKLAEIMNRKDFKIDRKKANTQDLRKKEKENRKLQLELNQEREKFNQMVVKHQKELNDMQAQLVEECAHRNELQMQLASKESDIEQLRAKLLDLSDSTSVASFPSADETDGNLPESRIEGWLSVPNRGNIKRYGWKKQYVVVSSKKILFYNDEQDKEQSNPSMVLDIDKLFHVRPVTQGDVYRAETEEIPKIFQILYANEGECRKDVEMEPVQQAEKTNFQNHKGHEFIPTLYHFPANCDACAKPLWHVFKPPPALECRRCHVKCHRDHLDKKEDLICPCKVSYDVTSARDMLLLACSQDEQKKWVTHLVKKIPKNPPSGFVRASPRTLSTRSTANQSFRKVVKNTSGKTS

[4] = molecular target: T2, TGF-beta receptor type-1 (Homo sapiens) (UniProt P36897); experiment: Selectivity interaction (KinomeScan (DiscoverX)) EUB0001619a TGFBR1; conditions: at 1 µM
T2 sequence (whole entry): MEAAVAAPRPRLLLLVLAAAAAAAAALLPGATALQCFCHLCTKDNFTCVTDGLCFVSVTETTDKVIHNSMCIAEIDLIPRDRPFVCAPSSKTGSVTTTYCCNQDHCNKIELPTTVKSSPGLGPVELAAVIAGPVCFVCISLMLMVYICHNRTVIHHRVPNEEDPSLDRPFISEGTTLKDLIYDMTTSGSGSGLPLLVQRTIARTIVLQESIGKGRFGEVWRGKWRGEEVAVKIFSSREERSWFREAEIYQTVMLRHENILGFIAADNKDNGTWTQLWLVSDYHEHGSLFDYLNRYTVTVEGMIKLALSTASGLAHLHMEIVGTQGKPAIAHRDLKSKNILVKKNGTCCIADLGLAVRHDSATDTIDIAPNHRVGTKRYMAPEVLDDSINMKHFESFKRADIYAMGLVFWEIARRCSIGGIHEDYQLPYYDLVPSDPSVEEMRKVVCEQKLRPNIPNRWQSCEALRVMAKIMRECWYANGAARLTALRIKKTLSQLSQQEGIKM

[5] = molecular target: T3, Interleukin-1 receptor-associated kinase 4 (Homo sapiens) (UniProt Q9NWZ3); experiment: Selectivity interaction (Kinase panel (Z-LYTE Assay)) EUB0001632a IRAK4; conditions: at 10 µM
T3 sequence (whole entry): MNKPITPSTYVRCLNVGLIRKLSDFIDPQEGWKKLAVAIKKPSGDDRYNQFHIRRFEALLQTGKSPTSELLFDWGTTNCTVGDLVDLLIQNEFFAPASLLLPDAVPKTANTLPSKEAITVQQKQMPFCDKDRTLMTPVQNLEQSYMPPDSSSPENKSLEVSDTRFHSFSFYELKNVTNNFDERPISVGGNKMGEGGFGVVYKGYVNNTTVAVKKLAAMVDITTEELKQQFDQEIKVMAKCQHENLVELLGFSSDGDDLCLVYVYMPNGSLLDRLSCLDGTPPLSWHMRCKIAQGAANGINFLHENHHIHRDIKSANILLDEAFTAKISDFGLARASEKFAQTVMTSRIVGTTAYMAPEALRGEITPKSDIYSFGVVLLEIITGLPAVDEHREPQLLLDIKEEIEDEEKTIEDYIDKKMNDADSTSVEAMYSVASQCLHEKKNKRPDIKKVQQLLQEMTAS

[6] = molecular target: T4, Serine/threonine-protein kinase Sgk3 (Homo sapiens) (UniProt Q96BR1); experiment: Selectivity interaction (Kinase panel (Z-LYTE Assay)) EUB0001632a SGK3; conditions: at 10 µM
T4 sequence (whole entry): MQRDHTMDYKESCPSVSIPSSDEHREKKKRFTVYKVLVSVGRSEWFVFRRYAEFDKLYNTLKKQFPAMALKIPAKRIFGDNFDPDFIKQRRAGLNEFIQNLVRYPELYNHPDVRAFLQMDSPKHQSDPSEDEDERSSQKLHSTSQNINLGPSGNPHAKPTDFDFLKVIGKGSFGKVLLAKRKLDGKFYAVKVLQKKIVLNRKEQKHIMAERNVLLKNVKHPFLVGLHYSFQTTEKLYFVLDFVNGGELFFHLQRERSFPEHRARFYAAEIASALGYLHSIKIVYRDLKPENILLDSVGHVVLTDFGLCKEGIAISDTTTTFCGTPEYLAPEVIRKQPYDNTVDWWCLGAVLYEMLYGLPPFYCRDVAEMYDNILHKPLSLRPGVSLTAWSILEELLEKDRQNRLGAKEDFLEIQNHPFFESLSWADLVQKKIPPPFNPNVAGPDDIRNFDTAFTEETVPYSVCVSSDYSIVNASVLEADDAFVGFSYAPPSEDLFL

Casein kinase I isoform alpha, sequence (P48729 2-337 limits assumed): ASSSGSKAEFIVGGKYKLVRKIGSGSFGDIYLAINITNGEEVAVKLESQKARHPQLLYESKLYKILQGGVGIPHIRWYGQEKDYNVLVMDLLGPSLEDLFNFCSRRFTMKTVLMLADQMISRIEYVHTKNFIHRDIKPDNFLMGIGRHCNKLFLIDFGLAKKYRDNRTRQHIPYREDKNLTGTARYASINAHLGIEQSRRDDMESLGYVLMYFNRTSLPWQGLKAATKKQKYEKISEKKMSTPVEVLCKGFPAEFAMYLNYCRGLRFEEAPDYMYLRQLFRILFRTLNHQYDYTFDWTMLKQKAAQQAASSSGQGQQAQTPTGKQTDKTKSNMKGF

COc1cc(N(C)c2ccnc3ccc(C(F)(F)F)cc23)cc(OC)c1OC
% binding [1]: 90%

CN(C)C/C=C/C(=O)Nc1ccc(C(=O)N2CCCC(Nc3ncc(Cl)c(-c4c[nH]c5ccccc45)n3)C2)cc1 (stereo unspecified)
% of control [2]: 100%
% of control [3]: 90%

N#Cc1cccc(-c2c[nH]c3ncnc(N4CCOCC4)c23)c1
% of control [4]: 79%

Cn1cc(-n2cnc3c(NCc4nc5cc(Cl)c(Cl)cc5[nH]4)nc(N4CCOCC4)nc32)cn1
% of control [5]: 2.42%
% of control [6]: 0.168%
